This note sets out measurements from US4923882A, “Novel amine derivatives, salts thereof and an anti-ulcer agent containing the same” (Toyama Chemical Co., Ltd., priority 1982, dated 1990).

Common to all, as to format: in vivo, Wistar strain rats
Test [1] has as its system gastric acid secretion. Description: Inhibitory effect on gastric acid secretion, pylorus ligation method (histamine). Conditions: Rattus norvegicus, oral, histamine 25 mg/kg s.c., read-out: Inhibition percentage (gastric acid secretion). As for the experimental part:
Five to six Wistar strain rats (male, 190 to 230 g) per group were starved for 35 hours, after which each drug was orally administered, and after 2 hours, the pylorus of each rat was ligated under ether anesthesia. […] After 3 hours, each rat was killed, after which the cardiac portion was ligated, and the stomach was removed. After 1 ml of distilled water was injected into the stomach, the gastric juice was collected by centrifugation and its volume was measured. The acidity of the gastric juice was measured by titrating 1 ml of the gastric juice with a 0.1N aqueous sodium hydroxide solution, taking pH 7.0 as the end-point. Physiological saline was administered to a control group.
The inhibition percentage of gastric acid secretion was determined from the following equation: [formula]

For test [2], the system named is gastric acid secretion. In words: Inhibitory effect on gastric acid secretion, perfused stomach preparation of anesthetized rat (histamine stimulated). Conditions: intravenous; for ED100: Rattus norvegicus, cumulative, histamine 30 μg/kg/min, read-out: Dose for complete inhibition; for Duration: time from complete inhibition until pH of perfusate became 4. On the procedure:
(i) Perfused stomach preparation of anesthetized rat [according to M. N. Ghosh and H. O. Schild: Brit. J. Pharmacol. 13, 54 (1958)]
Wistar strain rats (male, 200 to 250 g) starved for 18 hours were anesthetized with urethane and then subjected to laparotomy, after which the forestomach region of the stomach of each rat was incised. The whole interior of the stomach was sufficiently washed with physiological saline, and the cut edges were sutured. A silicon tube was inserted into the stomach to a length of about 5 mm from the duodenum side and fixed. Subsequently, the stomach was perfused with physiological saline adjusted to a pH of about 10 with an aqueous sodium hydroxide solution at a constant rate (1 ml/min) through an oral sonde, and the change in pH of the perfusate which had flowed out through the silicone tube was continuously recorded. During the perfusion, histamine (30 μg/kg/min) was continuously injected, as an agent for stimulating gastric acid secretion, through the femoral vein at a rate of 0.3 ml/min. Each drug was intravenously administered when the acid secretion became almost constant (pH 3.3±0.2), and cumulatively administered when the inhibition of acid secretion at each dose reached a plateau.
The number of experiments was three for each dose.

In test [3] the test system is Reserpine ulcer. Description: Anti-ulcer activity: Reserpine ulcer. Conditions: oral. As for the experimental part:
An experiment was carried out according to the method of Adami et al. [E. Adami et al., Arch. int.
Ten Wistar strain rats (male, 180 to 200 g) per group were starved for 30 hours, after which each drug was orally administered, and after 1 hour, reserpine was injected subcutaneously at a dose of 10 mg/kg. After 18 hours, the stomach was removed and fixed with 3% formalin, and thereafter the lengths of the ulcers formed in the stomach were measured with callipers. The measured values were converted to the scores described below, and the sum total of the scores was taken as the ulcer index.
That is to say, 1 to 5 pin point ulcers are scored as 1, 6 or more pin point ulcers are scored as 2, ulcers of 1 mm or less in length are scored as 1, ulcers of 1 to 2 mm in length are scored as 2, ulcers of 2 to 4 mm in length are scored as 4, and ulcers of 4 mm or more in length are scored as 8.
To a control group was administered 0.5% Tween 80 physiological saline. The inhibition percentage was determined from the following equation: [formula]

Test [4] relates to Indomethacin ulcer. In words: Anti-ulcer activity: Indomethacin ulcer. As for the experimental part: Six Wistar strain rats (male, 200 to 250 g) per group were starved for 24 hours, after which each drug was orally administered, and after 30 minutes, Indomethacin was injected subcutaneously at a dose of 30 mg/kg. After 5 hours, each rat was killed, and the stomach was removed and fixed with 3% formalin, after which the lengths of ulcers formed in the stomach was measured under the binocular stereoscopic microscope (10×), and the sum total of the lengths was taken as the ulcer index. To a control group was administered 0.5% Tween 80 physiological saline. The inhibition percentage was determined from the following equation: [formula]

`CN(C)Cc1ccc(CSCCNC(=C[N+](=O)[O-])NCC(O)c2ccc(Cl)cc2)o1` (centres unmarked) [compound 5, N-[2-(4-chlorophenyl)-2-hydroxyethyl]-N'-{2-[[5-(dimethylamino)methyl-2-furyl]methylthio]ethyl}-2-nitro-1,1-ethenediamine]: the inhibition in vivo at 3 mg/kg in test [1] is 80%. Besides, in test [2], the ED100 stood at 0.1 mg/kg and the Duration worked out at 192 min.

On to `CN(C)Cc1ccc(CSCCNC(=C[N+](=O)[O-])NCC(O)c2cccs2)o1` (centres unmarked) [compound 6], for which, in test [1], the inhibition in vivo at 3 mg/kg turned out to be 67% and the inhibition in vivo at 10 mg/kg was 93%. For the same compound, in test [2], the ED100 came out at 0.1 mg/kg and the Duration is given as 132 min.

As for `Cc1ccsc1C(O)CNC(=C[N+](=O)[O-])NCCSCc1ccc(CN(C)C)o1` (centres unmarked) [compound 7, N-{2-[[5-(dimethylamino)methyl-2-furyl]methylthio]ethyl}-N'-[2-hydroxy-2-(3-methyl-2-thienyl)ethyl]-2-nitro-1,1-ethenediamine], the inhibition in vivo at 3 mg/kg in test [1] was 88%. In addition, in test [2], the ED100 worked out at 0.1 mg/kg and the Duration is on record as 227 min.

As to `O=[N+]([O-])C=C(NCCCOc1cccc(CN2CCCCC2)c1)NCC(O)c1ccccc1` (stereo not drawn) [compound 11, N-(β-hydroxyphenethyl)-2-nitro-N'-[3-(3-piperidinomethylphenoxy)propyl]-1,1-ethenediamine], in test [1], the inhibition in vivo at 3 mg/kg worked out at 79% and the inhibition in vivo at 10 mg/kg is 81%. In test [2], the ED100 was 0.05 mg/kg and the Duration turned out to be 123 min.

For `O=[N+]([O-])C=C(NCCCOc1cccc(CN2CCCCC2)c1)NCC(O)c1ccc(O)cc1` (centres unmarked) [compound 12, N-[2-hydroxy-2-(4-hydroxyphenyl)ethyl]-2-nitro-N'-[3-(3-piperidinomethylphenoxy)propyl]-1,1-ethenediamine], the inhibition in vivo at 3 mg/kg in test [1] was 87%. Moreover, in test [2], the ED100 was determined as 0.15 mg/kg and the Duration was over 240 min.

On to `O=[N+]([O-])C=C(NCCCOc1cccc(CN2CCCCC2)c1)NCC(O)c1cccc(O)c1` (centres unmarked) [compound 13, N-[2-hydroxy-2-(3-hydroxyphenyl)ethyl]-2-nitro-N'-[3-(3-piperidinomethylphenoxy)propyl]-1,1-ethenediamine], for which the inhibition in vivo at 1 mg/kg in test [1] came out at 51%. In addition, in test [2], the ED100 came out at 0.1 mg/kg and the Duration is reported as over 240 min.

On to `COc1ccc(C(O)CNC(=C[N+](=O)[O-])NCCCOc2cccc(CN3CCCCC3)c2)cc1` (centres unmarked) [compound 14, N-[2-hydroxy-2-(4-methoxyphenyl)ethyl]-2-nitro-N'-[3-(3-piperidinomethylphenoxy)propyl]-1,1-ethenediamine], for which the inhibition in vivo at 1 mg/kg in test [1] stood at 61%. Also, in test [2], the ED100 was 0.15 mg/kg and the Duration is 158 min.

Consider `O=[N+]([O-])C=C(NCCCOc1cccc(CN2CCCCC2)c1)NCC(O)c1ccc(Cl)cc1` (centres unmarked) [compound 16, N-[2-(4-chlorophenyl)-2-hydroxyethyl]-2-nitro-N'-[3-(3-piperidinomethylphenoxy)propyl]-1,1-ethenediamine], for which the inhibition in vivo at 3 mg/kg in test [1] is 89%. For the same compound, in test [2], the ED100 worked out at 0.1 mg/kg and the Duration was 304 min.

Turning to `Cc1ccsc1C(O)CNC(=C[N+](=O)[O-])NCCCOc1cccc(CN2CCCCC2)c1` (centres unmarked) [compound 18, N-[2-hydroxy-2-(3-methyl-2-thienyl)ethyl]-2-nitro-N'-[3-(3-piperidinomethylphenoxy)propyl]-1,1-ethenediamine], the inhibition in vivo at 3 mg/kg in test [1] worked out at 87%. Also, in test [2], the ED100 was 0.3 mg/kg and the Duration was 247 min.

In the case of `Cc1cc(CSCCNC(=C[N+](=O)[O-])NCC(O)c2cccc(Br)c2)sc1CN(C)C` (centres unmarked) [compound 32, N-[2-(3-bromophenyl)-2-hydroxyethyl]-N'-{2-[[5-(dimethylamino)methyl-4-methyl-2-thienyl]methylthio]ethyl}-2-nitro-1,1-ethenediamine], the inhibition in vivo at 1.5 mg/kg in test [1] (1.5 mg/kg) was 60%. For the same compound, the ED100 in test [2] was 0.3 mg/kg. The Duration in test [2] is over 220 min. The Inhibition percentage in test [3] (1 mg/kg) is recorded as 38%; in test [3] (3 mg/kg), 55%. Also, the ED50 in test [3] (Rattus norvegicus, 18 h, reserpine ulcer, read-out: ID50 (the source's name)) was 2.15 mg/kg; in test [4] (Rattus norvegicus, 5 h, oral, Indomethacin ulcer, read-out: ID50 (the source's name)), 1.81 mg/kg. Further, the Potency ratio in test [4] (Cimetidine = 1) turned out to be 15.2. In test [4] (Rattus norvegicus, 1 mg/kg, oral, read-out: Inhibition percentage), the inhibition in vivo at 1 mg/kg is 24%. In test [4] (Rattus norvegicus, 3 mg/kg, oral, read-out: Inhibition percentage), the inhibition in vivo at 3 mg/kg turned out to be 72%.

As to `Cc1ccccc1C(O)CNC(=C[N+](=O)[O-])NCCSCc1ccc(CN(C)C)o1` (centres unmarked) [compound 39, N-{2-[[5-(dimethylamino)methyl-2-furyl]methylthio]ethyl}-N'-[2-hydroxy-2-(2-methylphenyl)ethyl]-2-nitro-1,1-ethenediamine], the inhibition in vivo at 3 mg/kg in test [1] came to 90%.

As for `Cc1cc(CSCCNC(=C[N+](=O)[O-])NCC(O)c2ccc(F)cc2)sc1CN(C)C` (centres unmarked) [compound 41, N-{2-[[5-(dimethylamino)methyl-4-methyl-2-thienyl]methylthio]ethyl}-N'-[2-(4-fluorophenyl)-2-hydroxyethyl]-2-nitro-1,1-ethenediamine], in test [1], the inhibition in vivo at 1 mg/kg amounted to 65%.

For the compound `O=[N+]([O-])C=C(NCCCOc1cccc(CN2CCCCC2)c1)NCC(O)c1cccc(F)c1` (centres unmarked) [compound 43, N-[2-(3-fluorophenyl)-2-hydroxyethyl]-2-nitro-N'-[3-(3-piperidinomethylphenoxy)propyl]-1,1-ethenediamine], the inhibition in vivo at 1 mg/kg in test [1] is 51%.

In the case of `Cc1ccccc1C(O)CNC(=C[N+](=O)[O-])NCCCOc1cccc(CN2CCCCC2)c1` (centres unmarked) [compound 44, N-[2-hydroxy-2-(2-methylphenyl)ethyl]-2-nitro-N'-[3-(3-piperidinomethylphenoxy)propyl]-1,1-ethenediamine], the inhibition in vivo at 1 mg/kg in test [1] came to 75%.

Take `Nc1ccc(C(O)CNC(=C[N+](=O)[O-])NCCCOc2cccc(CN3CCCCC3)c2)cc1` (centres unmarked) [compound 45, N-[2-(4-aminophenyl)-2-hydroxyethyl]-2-nitro-N'-[3-(3-piperidinomethylphenoxy)propyl]-1,1-ethenediamine]: in test [1], the inhibition in vivo at 1 mg/kg worked out at 65%.
